From PubChem BioAssay (NCI)
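Tested at 5 concentrations; 48 h exposure; 96-well plates; endpoints linearly interpolated, else capped at highest concentration. At the TGI there is no net growth.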

Legend:
Assay in all cases: DTP human tumour cell line panel, 48 h
[1] = test system: 786-0 renal
[2] = test system: A549 NSCLC
[3] = test system: ACHN renal
[4] = test system: CAKI-1 renal
[5] = test system: CCRF-CEM leukemia
[6] = test system: COLO 205 colon
[7] = test system: DLD-1 colon
[8] = test system: DMS 114 small cell lung
[9] = test system: DMS 273 small cell lung
[10] = test system: EKVX NSCLC
[11] = test system: HCC-2998 colon
[12] = test system: HCT-116 colon
[13] = test system: HCT-15 colon
[14] = test system: HL-60(TB) leukemia
[15] = test system: HOP-18 NSCLC
[16] = test system: HOP-62 NSCLC
[17] = test system: HT29 colon
[18] = test system: K-562 leukemia
[19] = test system: KM12 colon
[20] = test system: LOX IMVI melanoma
[21] = test system: M14 melanoma
[22] = test system: M19-MEL melanoma
[23] = test system: MALME-3M melanoma
[24] = test system: MOLT-4 leukemia
[25] = test system: NCI-H226 lung
[26] = test system: NCI-H23 lung
[27] = test system: NCI-H460 lung
[28] = test system: NCI-H522 lung
[29] = test system: OVCAR-3 ovarian
[30] = test system: OVCAR-4 ovarian
[31] = test system: OVCAR-5 ovarian
[32] = test system: OVCAR-8 ovarian
[33] = test system: RPMI-8226 leukemia
[34] = test system: SF-268 CNS
[35] = test system: SF-295 CNS
[36] = test system: SF-539 CNS
[37] = test system: SK-MEL-2 melanoma
[38] = test system: SK-MEL-28 melanoma
[39] = test system: SK-MEL-5 melanoma
[40] = test system: SN12C renal
[41] = test system: SNB-19 CNS
[42] = test system: SNB-75 CNS
[43] = test system: SNB-78 CNS
[44] = test system: SR leukemia
[45] = test system: SW-620 colon
[46] = test system: TK-10 renal
[47] = test system: UACC-257 melanoma
[48] = test system: UO-31 renal
[49] = test system: XF 498 CNS
[50] = test system: A498 renal
[51] = test system: BT-549 breast
[52] = test system: DU-145 prostate
[53] = test system: HOP-92 NSCLC
[54] = test system: HS 578T breast
[55] = test system: IGROV1 ovarian
[56] = test system: MCF7 breast
[57] = test system: MDA-MB-231 breast
[58] = test system: MDA-MB-435
[59] = test system: MDA-N
[60] = test system: NCI/ADR-RES ovarian
[61] = test system: PC-3 prostate
[62] = test system: RXF 393 renal
[63] = test system: SK-OV-3 ovarian
[64] = test system: T-47D breast
[65] = test system: U251 CNS
[66] = test system: UACC-62 melanoma

CC(=O)Nc1ccc(C(=O)N2N=C(C)/C(=C/c3ccccc3O)C2=O)cc1
TGI [1]: > 100 µM
TGI [2]: > 100 µM
TGI [3]: > 100 µM
TGI [4]: > 100 µM
TGI [5]: > 100 µM
TGI [6]: > 100 µM
TGI [7]: > 100 µM
TGI [8]: > 100 µM
TGI [9]: > 100 µM
TGI [10]: > 100 µM
TGI [11]: > 100 µM
TGI [12]: > 100 µM
TGI [13]: > 100 µM
TGI [14]: > 100 µM
TGI [15]: > 100 µM
TGI [16]: > 100 µM
TGI [17]: > 100 µM
TGI [18]: > 100 µM
TGI [19]: > 100 µM
TGI [20]: > 100 µM
TGI [21]: > 100 µM
TGI [22]: > 100 µM
TGI [23]: > 100 µM
TGI [24]: > 100 µM
TGI [25]: > 100 µM
TGI [26]: > 100 µM
TGI [27]: > 100 µM
TGI [28]: > 100 µM
TGI [29]: > 100 µM
TGI [30]: > 100 µM
TGI [31]: > 100 µM
TGI [32]: > 100 µM
TGI [33]: > 100 µM
TGI [34]: > 100 µM
TGI [35]: > 100 µM
TGI [36]: > 100 µM
TGI [37]: > 100 µM
TGI [38]: > 100 µM
TGI [39]: > 100 µM
TGI [40]: > 100 µM
TGI [41]: > 100 µM
TGI [42]: > 100 µM
TGI [43]: > 100 µM
TGI [44]: > 100 µM
TGI [45]: > 100 µM
TGI [46]: > 100 µM
TGI [47]: > 100 µM
TGI [48]: > 100 µM
TGI [49]: > 100 µM

CCC1(O)CC(O)c2c(O)c3c(c(O)c2C1C(=O)OC)C(=O)c1cccc(O)c1C3=O (configuration not stated)
TGI [1]: 14.3 µM
TGI [50]: 18.4 µM
TGI [2]: 14.2 µM
TGI [3]: 15.1 µM
TGI [51]: 34.8 µM
TGI [4]: 15.3 µM
TGI [5]: 9.71 µM
TGI [6]: 7.65 µM
TGI [52]: 21.8 µM
TGI [10]: 6.65 µM
TGI [11]: 21.4 µM
TGI [12]: 11.7 µM
TGI [13]: 21.1 µM
TGI [14]: 6.07 µM
TGI [16]: 16.6 µM
TGI [53]: 32.1 µM
TGI [54]: 24.5 µM
TGI [17]: 14.1 µM
TGI [55]: 12.1 µM
TGI [18]: > 21.8 µM
TGI [19]: 17.4 µM
TGI [20]: 9.92 µM
TGI [21]: 14.1 µM
TGI [23]: 7.08 µM
TGI [56]: 16.9 µM
TGI [57]: 13 µM
TGI [58]: > 100 µM
TGI [59]: 47.1 µM
TGI [24]: 2.19 µM
TGI [25]: 18.1 µM
TGI [26]: 24.4 µM
TGI [27]: 14.2 µM
TGI [28]: 4.96 µM
TGI [60]: 3.28 µM
TGI [29]: 8.63 µM
TGI [30]: 13.9 µM
TGI [31]: 21 µM
TGI [32]: 5.88 µM
TGI [61]: 13 µM
TGI [33]: > 23.1 µM
TGI [62]: 23.5 µM
TGI [34]: 16.2 µM
TGI [35]: 10.7 µM
TGI [36]: 14.8 µM
TGI [37]: 10.2 µM
TGI [38]: 75.4 µM
TGI [39]: 6.39 µM
TGI [63]: > 36.1 µM
TGI [40]: 17.3 µM
TGI [41]: 20.9 µM
TGI [42]: 18.5 µM
TGI [44]: 5.91 µM
TGI [45]: > 48.2 µM
TGI [64]: 32.8 µM
TGI [46]: 24.3 µM
TGI [65]: 16.6 µM
TGI [47]: 21.8 µM
TGI [66]: 12.4 µM
TGI [48]: 13.2 µM

CCCC(CC)c1cc(O)c(O)cc1C(CC)CCC (configuration not stated)
TGI [1]: > 10 µM
TGI [50]: > 10 µM
TGI [2]: > 10 µM
TGI [3]: > 10 µM
TGI [51]: > 10 µM
TGI [4]: > 10 µM
TGI [5]: > 10 µM
TGI [6]: > 10 µM
TGI [52]: > 10 µM
TGI [10]: > 10 µM
TGI [11]: > 10 µM
TGI [12]: > 10 µM
TGI [13]: > 10 µM
TGI [14]: > 10 µM
TGI [16]: > 10 µM
TGI [53]: > 10 µM
TGI [54]: > 10 µM
TGI [17]: > 10 µM
TGI [55]: > 10 µM
TGI [18]: > 10 µM
TGI [19]: > 10 µM
TGI [20]: > 10 µM
TGI [21]: > 10 µM
TGI [23]: > 10 µM
TGI [56]: > 10 µM
TGI [57]: > 10 µM
TGI [58]: > 10 µM
TGI [59]: > 10 µM
TGI [24]: > 10 µM
TGI [25]: > 10 µM
TGI [26]: > 10 µM
TGI [27]: > 10 µM
TGI [28]: > 10 µM
TGI [60]: > 10 µM
TGI [29]: > 10 µM
TGI [30]: > 10 µM
TGI [31]: > 10 µM
TGI [32]: > 10 µM
TGI [61]: > 10 µM
TGI [33]: > 10 µM
TGI [62]: > 10 µM
TGI [34]: > 10 µM
TGI [35]: > 10 µM
TGI [36]: > 10 µM
TGI [37]: > 10 µM
TGI [38]: > 10 µM
TGI [39]: > 10 µM
TGI [63]: > 10 µM
TGI [40]: > 10 µM
TGI [41]: > 10 µM
TGI [42]: > 10 µM
TGI [44]: > 10 µM
TGI [45]: > 10 µM
TGI [64]: > 10 µM
TGI [46]: > 10 µM
TGI [65]: > 10 µM
TGI [47]: > 10 µM
TGI [66]: > 10 µM
TGI [48]: > 10 µM
